Patent US20230167408A1, “METHODS AND COMPOSITIONS FOR MAINTAINING AND EXPANDING HEMATOPOIETIC STEM CELLS” (Trailhead Biosystems Inc., priority 2021, published 2023)
“Also recorded” adds a separate entry of the source.

Experiments:
Format in all cases: cell-based, human
[1] = tested on: CD34+ population of cells isolated from cord blood; assay: HD-DoE effector experiments, gene expression modeling after 3-day treatment; details: for factor contribution (impact) on expression of CRHBP: 8-factor experiment tropoelastin, lipid mixture, propionate, biotin, geltrex, N-acetyl cysteine, prostaglandin E2, VPA, FIG. 3/4; for factor contribution on expression of CRHBP: Yhhu 3792, fibronectin, TPCA-1, GW9662, Z-vad-fmk, VEGF, FIG. 5; for factor contribution on expression of MEG3: same 8-factor experiment optimized for maximum MEG3, FIG. 2
Source text: This example utilizes a method of High-Dimensional Design of Experiments (HD-DoE), as previously described in Bukys et al. (2020) Iscience 23:101346. The method employs computerized design geometries to simultaneously test multiple process inputs and offers mathematical modeling of a deep effector/response space. The method allows for finding combinatorial signaling inputs that control a complex process, such as during cell differentiation. It allows testing of multiple plausible critical process parameters, as such parameters impact output responses, such as gene expression. Because gene expression provides hallmark features of the phenotype of, for example, a human cell, the method can be applied to identify, and understand, which signaling pathways control cell fate. In the current example, the HD-DOE method was applied with the intent to find conditions for expansion and maintenance of HSCs.
Specifically, to develop the HSC recipe, the impact of agonists and antagonists of multiple signaling pathways (herein called effectors) were tested on expression of two sets of 53 pre-selected genes after a 3-day treatment. Specific genes in the measured subset are highly enriched in HSC and include CRHBP, MLLT3, MEG3, MECOM, HOXA5 and GATA2. The effectors chosen include small molecules or proteins, some of which are used during in vitro expansion of HSC.
To test the effectors, experiments with at least 8 factors were designed that can assess the response of cells to 48 or more different combinations of effectors in a range of concentrations. To analyze the models, we focused on expression of genes that are either expressed or enriched in primitive HSC including CRHBP, GATA2, MLLT3 and MEG3. The impact of each effector on gene expression level is defined by a parameter called factor contribution that is calculated for each effector during the modeling. All the experiments were conducted using a CD34^+ population of cells isolated from cord blood.
To identify the recipe for HSC expansion, cells were treated with various effectors for 3 days in media containing stem cell factor (SCF) and thrombopoietin (TPO) and the gene expression of cells was modeled. […] Additionally, on this model we observed NOTCH1 upregulation and MPO downregulation. […] Previous studies have shown that NOTCH1 activation increases HSC self-renewal in vivo (Stier et al. (2002) Blood 99:2369-78).
To further improve the recipe for HSC maintenance and expansion, additional HD-DoE experiments were performed. […] The goal was to evaluate further factors to possibly increase the complexity of the signaling inputs to attain effective fate control. As previously, we focused on expression of HSC enriched genes mentioned earlier. An 8-factor experiment was performed, testing tropoelastin, lipid mixture, propionate, biotin, geltrex, N-acetyl cysteine, prostaglandin E2, and VPA. Similar to the previous experiment, CD34^+ cells were treated with 48 conditions of combinations of the factors for 3 days and gene expression analysis and modeling was performed.
To further improve the recipe for HSC maintenance and expansion, additional HD-DoE experiments were performed. Another 8-factor experiment was performed consisting of LPA, Yhhu 3792, fibronectin, TPCA-1, GW9662, Z-vad-fmk, VEGF and activin A. Similarly to the previous experiment, CD34^+ cells were treated with 48 conditions of combinations of the factors for 3 days and then gene expression analysis experiments were conducted.

[2] = tested on: CD34+ population of cells isolated from cord blood; assay: Factor criticality analysis (dynamic profile analysis) of HSC expansion recipe; parameters: GATA2 expression level / MEG3 expression level / CRHBP expression level: unit not given here
Source text: In this example, to assess the impact of elimination of each validated factor identified as described in Example 1, dynamic profile analysis was used and compared the expression level of genes of interest in the absence of each finalized factor while others are kept present. […] The results of the criticality analysis for the factors FICZ, LPA, Vit. C and Activin A are shown in FIG. 6A-B. The results of the criticality analysis for VPA are shown in FIG. 7A-B. The results of the criticality analysis for Yhhu 3792 are shown in and FIG. 8A-B.
For the HSC expansion recipe, each of the six finalized factors were removed while other five factors were present and the expression levels of GATA2, HOXA5, CRHBP was assessed compared to the presence of all […]. Because SCF and TPO are cytokines impacting cell growth and survival, our recipe included these cytokines as well. When FICZ was removed, values for GATA2 expression decreased from 642 to 512, while HOXA5 and MEG3 expression was unchanged. […] Removal of Vit.C decreased the level of MEG3 from 82 to 53. Activin A is a critical factor for MEG3, since its removal decreases MEG3 levels from 81 to 40.

CD34+ cells = assay: Culture of CD34+ cells in the presence of commonly used cytokines
Description: To further validate the HSC culture recipe described in Example 1, CD34+ cord blood derived cells were grown for 7 days in media comprising the ingredients shown in Table 1 and flow cytometry analysis was used to assess markers of the LT-HSC state. Markers tested included Lineage (CD3, CD14, CD16, CD19, CD20, CD56), CD34, CD38, CD45RA and CD90. Additionally, cells were grown in media with SCF and TPO as a control, commonly used by others to promote HSC expansion. […] 100,000 cells were plated for each condition.

[3] = 8-factor experiment LPA, FICZ, Pyrintegrin, Laminin521, G0693, Vit.C, G-SCF, activin A, 3 days, media with SCF and TPO, FIG. 1/2
[4] = named factor removed, other factors present
[5] = 8-factor experiment LPA, activin A, 3 days
[6] = 8-factor experiment with tropoelastin ... VPA
[7] = 8-factor experiment with tropoelastin ... VPA optimized for maximum GATA2, FIG. 4

O=Cc1c2c(cc3c1=Nc1ccccc1-3)=Nc1ccccc1-2 [FICZ, 6-Formylindolo[3,2-b]carbazole]
factor contribution (impact) on expression of GATA2 [1, 3]: 21
factor contribution (impact) on expression of GATA2 ([1]; 8-factor experiment LPA, FICZ, Pyrintegrin, Laminin521, G0693, Vit.C, G-SCF, activin A, 3 days, media with SCF and TPO, FIG. 1/2, listed as FCIZ): positive impact
GATA2 expression level ([2]; all finalized factors present): 642
GATA2 expression level [2, 4]: 512
HOXA5 expression level [2, 4]: unchanged
MEG3 expression level [2, 4]: unchanged

CC(=O)N[C@@H](CS)C(=O)O [N-acetyl cysteine]
factor contribution (impact) on expression of CRHBP ([1]; 3 days): < 1

CCC(=O)O [Propionate, propionate]
factor contribution (impact) on expression of CRHBP ([1]; 3 days): 8

CCCC(CCC)C(=O)O [VPA, Valproic acid]
impact on expression of MEG3 ([1]; 8-factor experiment with tropoelastin ... VPA, FIG. 4): positive impact
CRHBP expression level ([2]; all finalized factors present): 285
MEG3 expression level ([2]; all finalized factors present): 106
CRHBP expression level [2, 4]: 138
GATA2 expression level [2, 4]: reduced
MEG3 expression level [2, 4]: 52

COc1cccc(Oc2cccc3nc(Nc4ccc(C(C)C)cc4)nc(N)c23)c1 [Yhhu 3792]
factor contribution on expression of CRHBP [1, 5]: 19
CRHBP expression level ([2]; all finalized factors present): 202
CRHBP expression level [2, 4]: 169

O=C(O)CCCC[C@@H]1SC[C@@H]2NC(=O)N[C@@H]21 [biotin]
factor contribution (impact) on expression of CRHBP ([1]; 3 days): 5

CCCCC[C@H](O)/C=C/[C@H]1[C@H](O)CC(=O)[C@@H]1C/C=C\CCCC(=O)O [prostaglandin E2]
effect of treatment on other HSC enriched genes [1, 6]: downregulates
factor contribution (impact) on expression of GATA2 [1, 7]: 25

IL6: commonly used cytokine to expand HSC
lineage bias of CD34+ cells cultured in the presence of the cytokine (CD34+ cells): induction of a myeloid bias

L-ascorbic acid phosphate sesquimagnesium salt hydrate [Vit.C]
factor contribution (impact) on expression of GATA2 ([1]; 8-factor experiment LPA, FICZ, Pyrintegrin, Laminin521, G0693, Vit.C, G-SCF, activin A, 3 days, media with SCF and TPO, FIG. 1/2, hydrate): 12
factor contribution (impact) on expression of GATA2 ([1]; 8-factor experiment LPA, FICZ, Pyrintegrin, Laminin521, G0693, Vit.C, G-SCF, activin A, 3 days, media with SCF and TPO, FIG. 1/2, listed as Vit. C, hydrate): positive impact
factor contribution on expression of MEG3 [1]: 16
MEG3 expression level ([2]; all finalized factors present): 82
MEG3 expression level [2, 4]: 53

fibronectin
factor contribution on expression of CRHBP [1, 5]: 18

lysophosphatidic acid [LPA]
factor contribution on expression of CRHBP [1, 5]: 8
GATA2 expression level ([2]; all finalized factors present): 644
GATA2 expression level [2, 4]: 525

B1: G-CSF: commonly used cytokine to expand HSC (protein, UniProt P09919 31-207, looked up)
Granulocyte …: TPLGPASSLPQSFLLKCLEQVRKIQGDGAALQEKLVSECATYKLCHPEELVLLGHSLGIPWAPLSSCPSQALQLAGCLSQLHSGLFLYQGLLQALEGISPELGPTLDTLQLDVADFATTIWQQMEELGMAPALQPTQGAMPAFASAFQRRAGGVLVASHLQSFLEVSYRVLRHLAQP
lineage bias of CD34+ cells cultured in the presence of the cytokine (CD34+ cells): induction of a myeloid bias

B2: tropoelastin: effector tested in the 8-factor experiment (protein, UniProt P15502 27-786, looked up)
Elastin: GGVPGAIPGGVPGGVFYPGAGLGALGGGALGPGGKPLKPVPGGLAGAGLGAGLGAFPAVTFPGALVPGGVADAAAAYKAAKAGAGLGGVPGVGGLGVSAGAVVPQPGAGVKPGKVPGVGLPGVYPGGVLPGARFPGVGVLPGVPTGAGVKPKAPGVGGAFAGIPGVGPFGGPQPGVPLGYPIKAPKLPGGYGLPYTTGKLPYGYGPGGVAGAAGKAGYPTGTGVGPQAAAAAAAKAAAKFGAGAAGVLPGVGGAGVPGVPGAIPGIGGIAGVGTPAAAAAAAAAAKAAKYGAAAGLVPGGPGFGPGVVGVPGAGVPGVGVPGAGIPVVPGAGIPGAAVPGVVSPEAAAKAAAKAAKYGARPGVGVGGIPTYGVGAGGFPGFGVGVGGIPGVAGVPGVGGVPGVGGVPGVGISPEAQAAAAAKAAKYGAAGAGVLGGLVPGAPGAVPGVPGTGGVPGVGTPAAAAAKAAAKAAQFGLVPGVGVAPGVGVAPGVGVAPGVGLAPGVGVAPGVGVAPGVGVAPGIGPGGVAAAAKSAAKVAAKAQLRAAAGLGAGIPGLGVGVGVPGLGVGAGVPGLGVGAGVPGFGAGADEGVRRSLSPELREGDPSSSQHLPSTPSSPRVPGALAAAKAAKYGAAVPGVLGGLGALGGVGIPGGVVGAGPAAAAAAAKAAAKAAQFGLVGAAGLGGLGVGGLGVPGVGGLGGIPPAAAAKAAKYGAAGLGGVLGGAGQFPLGGVAARPGFGLSPIFPGGACLGKACGRKRK
effect of treatment on other HSC enriched genes [1, 6]: downregulates
factor contribution (impact) on expression of GATA2 [1, 7]: 17

B3: Activin A: TGFb pathway agonist (protein, UniProt P08476 311-426, looked up)
Inhibin beta A chain: GLECDGKVNICCKKQFFVSFKDIGWNDWIIAPSGYHANYCEGECPSHIAGTSGSSLSFHSTVINHYRMRGHSPFANLKSCCVPTKLRPMSMLYYDDGQNIIKKDIQNMIVEECGCS
modifications: Inhibin beta A chain
notes: TGFb pathway agonist
factor contribution (impact) on expression of GATA2 [1, 3]: modest; also recorded: positive impact
factor contribution on expression of CRHBP [1, 5]: 26
factor contribution on expression of MEG3 [1]: 23
MEG3 expression level ([2]; all finalized factors present): 81
GATA2 expression level [2, 4]: positive impact
HOXA5 expression level [2, 4]: positive impact
MEG3 expression level [2, 4]: 40
